Source: US20070270434A1, “SULFONYL-SUBSTITUTED BICYCLIC COMPOUNDS AS MODULATORS OF PPAR” (KALYPSYS, INC., priority 2006, published 2007)

Tests used:
Type in all cases: cell-based, murine and human
Settings in all cases: 20-24 hours
[1] = target: T1, PPAR-alpha ligand binding domain fused to GAL4 DNA binding domain (UniProt Q07869); experiment: Transient transfection transactivation assay in CV-1 cells, PPAR-alpha (GAL4 chimera, luciferase reporter)
T1 sequence (Q07869 1-468): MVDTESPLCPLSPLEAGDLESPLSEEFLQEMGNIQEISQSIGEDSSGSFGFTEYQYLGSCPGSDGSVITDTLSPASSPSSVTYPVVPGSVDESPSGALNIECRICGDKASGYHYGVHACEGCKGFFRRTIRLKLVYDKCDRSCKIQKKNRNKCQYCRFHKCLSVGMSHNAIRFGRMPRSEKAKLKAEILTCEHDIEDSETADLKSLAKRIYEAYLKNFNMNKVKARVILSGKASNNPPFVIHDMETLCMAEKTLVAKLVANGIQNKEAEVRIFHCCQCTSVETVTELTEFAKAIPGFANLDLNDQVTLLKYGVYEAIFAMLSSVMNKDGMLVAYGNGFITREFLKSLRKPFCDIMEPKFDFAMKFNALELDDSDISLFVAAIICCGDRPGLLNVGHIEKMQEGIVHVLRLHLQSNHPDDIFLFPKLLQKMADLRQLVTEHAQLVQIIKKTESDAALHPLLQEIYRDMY
Source text: (§1) Compounds may be screened for functional potency in transient transfection assays in CV-1 cells for their ability to activate the PPAR subtypes (transactivation assay). A previously established chimeric receptor system was utilized to allow comparison of the relative transcriptional activity of the receptor subtypes on the same synthetic response element and to prevent endogenous receptor activation from complicating the interpretation of results. See, for example, Lehmann, J. M.; Moore, L. B.; Smith-Oliver, T. A; Wilkinson, W. O.; Willson, T. M.; Kliewer, S. A., An antidiabetic thiazolidinedione is a high affinity ligand for peroxisome proliferator-activated receptor […], J. Biol. Chem., 1995, 270, 12953-6. The ligand binding domains for murine and human PPAR-alpha, PPAR-gamma, and PPAR-delta are each fused to the yeast transcription factor GAL4 DNA binding domain. CV-1 cells were transiently transfected with expression vectors for the respective PPAR chimera along with a reporter construct containing four or five copies of the GAL4 DNA binding site driving expression of luciferase. After 8-16 h, the cells are replated into multi-well assay plates and the media is exchanged to phenol-red free DME medium supplemented with 5% delipidated calf serum. 4 hours after replating, cells were treated with either compounds or 1% DMSO for 20-24 hours. Luciferase activity was then assayed with Britelite (Perkin Elmer) following the manufacturer's protocol and measured with either the Perkin Elmer Viewlux or Molecular Devices Acquest (see, for example, Kliewer, S. A., et. al. Cell 1995, 83, 813-819). Rosiglitazone is used as a positive control in the PPARγ assay. Wy-14643 and GW7647 are used as positive controls in the PPARα assay. GW501516 is used as the positive control in the PPARδ assay.

[2] = target: T2, PPAR-delta ligand binding domain fused to GAL4 DNA binding domain (UniProt Q03181); experiment: Transient transfection transactivation assay in CV-1 cells, PPAR-delta (GAL4 chimera, luciferase reporter)
T2 sequence (Q03181 1-441): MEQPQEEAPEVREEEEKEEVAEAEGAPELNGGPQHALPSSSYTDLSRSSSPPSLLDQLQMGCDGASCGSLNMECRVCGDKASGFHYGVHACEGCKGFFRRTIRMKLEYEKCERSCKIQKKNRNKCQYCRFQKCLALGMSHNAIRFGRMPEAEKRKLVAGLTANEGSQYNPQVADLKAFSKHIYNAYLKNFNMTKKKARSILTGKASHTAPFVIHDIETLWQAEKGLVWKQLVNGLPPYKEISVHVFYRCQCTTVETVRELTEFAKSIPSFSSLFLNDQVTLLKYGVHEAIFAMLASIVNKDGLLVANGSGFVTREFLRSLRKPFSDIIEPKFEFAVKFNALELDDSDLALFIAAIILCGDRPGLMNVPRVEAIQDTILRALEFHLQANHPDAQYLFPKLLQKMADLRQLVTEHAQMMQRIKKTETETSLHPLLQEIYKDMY
Source text: as §1

[3] = target: T3, PPAR-gamma ligand binding domain fused to GAL4 DNA binding domain (UniProt P37231); experiment: Transient transfection transactivation assay in CV-1 cells, PPAR-gamma (GAL4 chimera, luciferase reporter)
T3 sequence (P37231 1-505): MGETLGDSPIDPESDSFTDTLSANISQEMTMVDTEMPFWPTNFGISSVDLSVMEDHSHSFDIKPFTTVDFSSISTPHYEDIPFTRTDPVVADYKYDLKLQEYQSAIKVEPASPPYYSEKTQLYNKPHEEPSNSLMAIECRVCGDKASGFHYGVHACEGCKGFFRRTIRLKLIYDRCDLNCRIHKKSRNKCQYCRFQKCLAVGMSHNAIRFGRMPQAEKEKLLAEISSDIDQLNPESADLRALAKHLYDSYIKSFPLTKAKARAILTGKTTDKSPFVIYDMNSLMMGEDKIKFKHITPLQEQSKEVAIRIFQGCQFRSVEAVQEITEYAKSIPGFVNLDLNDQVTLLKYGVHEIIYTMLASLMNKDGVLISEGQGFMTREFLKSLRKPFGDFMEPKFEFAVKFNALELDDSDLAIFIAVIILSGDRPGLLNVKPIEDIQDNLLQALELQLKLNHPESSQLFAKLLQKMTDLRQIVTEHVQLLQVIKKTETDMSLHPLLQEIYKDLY
Source text: as §1

Row | EC50 [1] [µM] | EC50 [2] [µM] | EC50 [3] [µM] | Structure (SMILES)
1 | > 100 | 5 to 100 | 5 to 100 | O=C(O)C1Cc2cccc(S(=O)(=O)N3CCN(C(=O)Cc4ccc(C(F)(F)F)cc4)CC3)c2C1 (stereo not drawn) [Example 20, 4-(4-(2-(4-(trifluoromethyl)phenyl)acetyl)piperazin-1-ylsulfonyl)-2,3-dihydro-1H-indene-2-carboxylic acid]
2 | > 100 | 5 to 100 | > 100 | O=C(O)C1Cc2cccc(S(=O)(=O)N3CCN(C(=O)CCc4ccc(OC(F)(F)F)cc4)CC3)c2C1 (stereo not drawn) [Example 16, 4-(4-(3-(4-(Trifluoromethoxy)phenyl)propanoyl)piperazin-1-ylsulfonyl)-2,3-dihydro-1H-indene-2-carboxylic acid]
3 | > 100 | < 5 | > 100 | C[C@@H]1CN(CCc2ccc(Cl)c(Cl)c2)C[C@H](C)N1S(=O)(=O)c1cccc2c1CC(C(=O)O)C2 (stereo partly drawn) [Example 27]
4 | 5 to 100 | < 5 | 5 to 100 | C[C@@H]1CN(Cc2ccc(OC(F)(F)F)c(Cl)c2)C[C@H](C)N1S(=O)(=O)c1cccc2c1CC(C(=O)O)C2 (stereo partly drawn) [Example 4, 4-(4-(3-Chloro-4-(trifluoromethoxy)benzyl)-cis-2,6-dimethylpiperazin-1-ylsulfonyl)2,3-dihydro-1H-indene-2-carboxylic acid]
5 | > 100 | < 5 | > 100 | C[C@@H]1CN(C(=O)CCc2ccc(OC(F)(F)F)cc2)C[C@H](C)N1S(=O)(=O)c1cccc2c1CC(C(=O)O)C2 (stereo partly drawn) [Example 8, 4-(cis-2,6-Dimethyl-4-(3-(4-(trifluoromethoxy)phenyl)propanoyl)piperazin-1-ylsulfonyl)-2,3-dihydro-1H-indene-2-carboxylic acid]
6 | > 100 | 5 to 100 | > 100 | C[C@@H]1CN(C(=O)c2ccc(OC(F)(F)F)cc2)C[C@H](C)N1S(=O)(=O)c1cccc2c1CC(C(=O)O)C2 (stereo partly drawn) [Example 9, 4-(cis-2,6-Dimethyl-4-(4-(trifluoromethoxy)benzoyl)piperazin-1-ylsulfonyl)-2,3-dihydro-1H-indene-2-carboxylic acid]
7 | 5 to 100 | < 5 | 5 to 100 | C[C@@H]1CN(CCc2ccc(SC(F)(F)F)cc2)C[C@H](C)N1S(=O)(=O)c1cccc2c1CC(C(=O)O)C2 (stereo partly drawn) [Example 23, 4-((cis)-2,6-Dimethyl-4-(4-(trifluoromethylthio)phenethyl)piperazin-1-ylsulfonyl)-2,3-dihydro-1H-indene-2-carboxylic acid]
8 | > 100 | < 5 | > 100 | C[C@@H]1CN(CC2(c3ccc(Cl)cc3)CC2)C[C@H](C)N1S(=O)(=O)c1cccc2c1CC(C(=O)O)C2 (stereo partly drawn) [Example 25, 4-(4-((1-(4-chlorophenyl)cyclopropyl)methyl)-(cis)-2,6-dimethylpiperazin-1-ylsulfonyl)-2,3-dihydro-1-H-indene-2-carboxylic acid]
9 | 5 to 100 | < 5 | 5 to 100 | O=C(O)C1Cc2cccc(S(=O)(=O)N3CCN(CCc4ccc(OC(F)(F)F)cc4)CC3)c2C1 (stereo not drawn) [Example 15, 4-(4-(4-(Trifluoromethoxy)phenethyl)piperazin-1-ylsulfonyl)-2,3-dihydro-1H-indene-2-carboxylic acid]

Second part, the molecule before the results:

Row | Structure (SMILES) | EC50 [1] [µM] | EC50 [2] [µM] | EC50 [3] [µM]
10 | C[C@@H]1CN(CCc2ccc(C(F)(F)F)cc2)C[C@H](C)N1S(=O)(=O)c1cccc2c1CC(C(=O)O)C2 (mixture of isomers) [Example 14A, 4-(cis-2,6-Dimethyl-4-(4-(trifluoromethyl)phenethyl)piperazin-1-ylsulfonyl)-2,3-dihydro-1H-indene-2-carboxylic acid] | > 100 | < 5 | > 100
11 | O=C(O)C1Cc2cccc(S(=O)(=O)N3CCN(CCCc4ccc(OC(F)(F)F)cc4)CC3)c2C1 (stereo not drawn) [Example 22, 4-(4-(3-(4-(Trifluoromethoxy)phenyl)propyl)piperazin-1-ylsulfonyl)-2,3-dihydro-1H-indene-2-carboxylic acid] | 5 to 100 | < 5 | < 5
12 | C[C@@H]1CN(S(=O)(=O)c2ccc(OC(F)(F)F)cc2)C[C@H](C)N1S(=O)(=O)c1cccc2c1CC(C(=O)O)C2 (stereo partly drawn) [Example 11, 4-(cis-2,6-Dimethyl-4-(4-(trifluoromethoxy)phenylsulfonyl)piperazin-1-ylsulfonyl)-2,3-dihydro-1H-indene-2-carboxylic acid] | > 100 | < 5 | 5 to 100
13 | C[C@@H]1CN(Cc2ccc(OC(F)(F)F)c(F)c2)C[C@H](C)N1S(=O)(=O)c1cccc2c1CC(C(=O)O)C2 (stereo partly drawn) [Example 5] | 5 to 100 | < 5 | 5 to 100
14 | O=C(O)C1Cc2cccc(S(=O)(=O)N3CCN(Cc4cccc(OC(F)(F)F)c4)CC3)c2C1 (stereo not drawn) [Example 2] | > 100 | < 5 | < 5
15 | O=C(O)C1Cc2cccc(S(=O)(=O)N3CCN(CCc4ccc(C(F)(F)F)cc4)CC3)c2C1 (stereo not drawn) [Example 21, 4-(4-(4-(trifluoromethyl)phenethyl)piperazin-1-ylsulfonyl)-2,3-dihydro-1H-indene-2-carboxylic acid] | 5 to 100 | < 5 | 5 to 100
16 | O=C(O)C1Cc2cccc(S(=O)(=O)N3CCN(S(=O)(=O)c4ccc(OC(F)(F)F)cc4)CC3)c2C1 (stereo not drawn) [Example 10, 4-(4-(4-(Trifluoromethoxy)phenylsulfonyl)piperazin-1-ylsulfonyl)-2,3-dihydro-1H-indene-2-carboxylic acid] | > 100 | 5 to 100 | 5 to 100
17 | C[C@@H]1CN(CCc2ccc(C(F)(F)F)c(F)c2)C[C@H](C)N1S(=O)(=O)c1cccc2c1CC(C(=O)O)C2 (stereo partly drawn) [Example 26, 4-(4-(3-Fluoro-4-(trifluoromethyl)phenethyl)-(cis)-2,6-dimethylpiperazin-1-ylsulfonyl)-2,3-dihydro-1H-indene-2-carboxylic acid] | > 100 | < 5 | > 100
18 | C[C@@H]1CN(Cc2ccc(SC(F)(F)F)cc2)C[C@H](C)N1S(=O)(=O)c1cccc2c1CC(C(=O)O)C2 (stereo partly drawn) [Example 6, 4-(cis-2,6-Dimethyl-4-(4-(trifluoromethylthio)benzyl)piperazin-1-ylsulfonyl)-2,3-dihydro-1H-indene-2-carboxylic acid] | 5 to 100 | < 5 | 5 to 100
19 | C[C@@H]1CN(C(=O)Cc2ccc(C(F)(F)F)cc2)C[C@H](C)N1S(=O)(=O)c1cccc2c1CC(C(=O)O)C2 (stereo partly drawn) [Example 13, 4-(cis-2,6-Dimethyl-4-(2-(4-(trifluoromethyl)phenyl)acetyl)piperazin-1-ylsulfonyl)-2,3-dihydro-1H-indene-2-carboxylic acid] | > 100 | 5 to 100 | > 100
